Test results reported in patent publication US20250136607A1 (REGOR PHARMACEUTICALS, INC., priority 2021, published 2025).
Like-named read-outs stand apart in the source and are kept apart here.

Target: Protein arginine deiminase 4 (PAD4) (Homo sapiens, UniProt Q9UM07)
Test: PAD4 ammonia release assay
Assay type: biochemical
Method: 1) Compound preparation: The compounds were diluted to 80× final concentrations. 2) The compounds were transferred to a 384-well assay plate by Tecan. DMSO: 1.25%. 3) Preparation of 1×Assay buffer: 100 mM HEPES, PH=8.0, 2 mM CaCl2, 50 mM NaCl, 0.1 mM TCEP, 0.6 mg/ml BSA. 4) 2× enzyme working solution (PAD4:20 nM) was prepared with assay buffer, and 10 μL of the obtained working solution were added to the 384-well assay plates. 5) The plate was centrifuged at 1000 rpm for 1 min. 6) After the centrifuge, the plate was incubated at RT for 15 min. 7) 2×BAEE substrate mix (600 μM) was prepared with assay buffer and 10 μL of the obtained substrate mix were added to each well. 8) The plate was centrifuged at 1000 rpm for 1 min and then incubated at RT for 60 min. 9) 1.5× detection mix (DTT:4 mM, OPA:3 mM, EDTA: 30 mM) was prepared, and 10 μL of the mix were added to the plate. 10) The plate was centrifuged at 1000 rpm for 1 min and then incubated at RT for 120 min. 11) The 384-well plates were placed into the Envision (PerkinElmer) and the assay data were collected.
The percent (%) inhibition at each concentration of compound was calculated based on and relative to the signal in the HPE (50 μM ref. compound) and ZPE (1.25% DMSO) wells included within each assay plate. The HPE worked as 100% inhibition, and the ZPE worked as 0% inhibition. The concentrations and % inhibition values for tested compounds were plotted and the concentration of compound required for 50% inhibition (IC50) was determined with a Four-parameter logistic dose response equation. The endpoint value (IC50) for the reference compound was evaluated in each experiment as a quality control measure. If the endpoint value is within 3-fold of the expected value, then the experiment quality is deemed as acceptable. The results are provided in Table 1 below. ≤0.1 μM=“++++”; >0.1 and ≤0.5 μM=“+++”; >0.5 and ≤5.0 μM=“++”; >5.0 μM=“+”. “−”=not available.

[1] = PAD4 ammonia release assay, BAEE substrate, 60 min at RT, read-out: Average IC50 Abs

Protein arginine deiminase 4 (PAD4), sequence (Q9UM07 whole entry): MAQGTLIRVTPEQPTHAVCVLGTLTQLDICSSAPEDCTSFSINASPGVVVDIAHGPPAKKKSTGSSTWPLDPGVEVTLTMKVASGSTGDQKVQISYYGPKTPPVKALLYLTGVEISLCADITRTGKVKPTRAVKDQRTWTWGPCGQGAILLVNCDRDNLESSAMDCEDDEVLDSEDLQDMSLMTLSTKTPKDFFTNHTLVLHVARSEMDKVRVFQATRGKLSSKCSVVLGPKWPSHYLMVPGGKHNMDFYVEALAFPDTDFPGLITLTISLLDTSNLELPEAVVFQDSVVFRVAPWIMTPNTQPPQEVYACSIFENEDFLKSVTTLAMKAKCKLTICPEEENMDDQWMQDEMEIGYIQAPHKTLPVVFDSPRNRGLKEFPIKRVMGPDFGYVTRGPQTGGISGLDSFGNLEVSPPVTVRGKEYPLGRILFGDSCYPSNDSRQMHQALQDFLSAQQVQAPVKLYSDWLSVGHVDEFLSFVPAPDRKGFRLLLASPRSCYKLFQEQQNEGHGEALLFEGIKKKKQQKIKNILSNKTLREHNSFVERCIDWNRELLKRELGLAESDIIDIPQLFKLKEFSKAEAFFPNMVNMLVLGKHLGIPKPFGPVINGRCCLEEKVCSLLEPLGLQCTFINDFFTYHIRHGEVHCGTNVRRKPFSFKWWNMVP

IC50 [1] [nM] | IC50 (PAD4 activity comparison, read-out: PAD4 Ammonia assay IC50) [nM] | relative potency of separated isomers in the PAD4 biochemical assay (SFC-separated stereoisomer pairs) | Compound
> 5000 | – | – | COc1cc(C(=O)N2C[C@@H](N)C3(CC3)C2)cc2nc(-c3cc4cccc5c4n3CCN5CCCO)n(CC3CC3)c12 [Example 61, (S)-(7-amino-5-azaspiro[2.4]heptan-5-yl)(1-(cyclopropylmethyl)-2-(1-(3-hydroxypropyl)-2,3-dihydro-1H-pyrrolo[1,2,3-de]quinoxalin-5-yl)-7-methoxy-1H-benzo[d]imidazol-5-yl)methanone]
> 5000 | – | – | COc1cc(-n2cc3c(n2)CCC(N)C3)cc2nc(-c3cc4cccc5c4n3CCN5CCCO)n(C)c12 (stereo not drawn) [Example 62, 3-(5-(5-(5-amino-4,5,6,7-tetrahydro-2H-indazol-2-yl)-7-methoxy-1-methyl-1H-benzo[d]imidazol-2-yl)-2,3-dihydro-1H-pyrrolo[1,2,3-de]quinoxalin-1-yl)propan-1-ol]
> 5000 | – | – | COc1cc(C(=O)N2C[C@H](N)C[C@@H](F)C2)cc2nc(-c3cc4cccc5c4n3CCN5CCCO)n(OC)c12 [Example 63, ((3R,5R)-3-amino-5-fluoropiperidin-1-yl)(2-(1-(3-hydroxypropyl)-2,3-dihydro-1H-pyrrolo[1,2,3-de]quinoxalin-5-yl)-1,7-dimethoxy-1H-benzo[d]imidazol-5-yl)methanone]
500 to 5000 | 2600 | – | COc1cc(C(=O)N2CCC[C@@H](N)C2)cc2nc(-c3cc4cccc5c4n3C(C)CN5)n(C)c12 (stereo partly drawn) [Example 65, ((R)-3-aminopiperidin-1-yl)(7-methoxy-1-methyl-2-(3-methyl-2,3-dihydro-1H-pyrrolo[1,2,3-de]quinoxalin-5-yl)-1H-benzo[d]imidazol-5-yl)methanone]
> 5000 | – | – | CC[C@@H]1CN(CCCO)c2cccc3cc(-c4nc5cc(C(=O)N6C[C@H]7CC[C@@H]6[C@@H]7N)cc(F)c5n4C)n1c23 [Example 70, ((1R,4R,7R)-7-amino-2-azabicyclo[2.2.1]heptan-2-yl)(2-((R)-3-ethyl-1-(3-hydroxypropyl)-2,3-dihydro-1H-pyrrolo[1,2,3-de]quinoxalin-5-yl)-7-fluoro-1-methyl-1H-benzo[d]imidazol-5-yl)methanone]
100 to 500 | – | – | CCC1CN(CCCO)c2cccc3cc(-c4nc5cc(C(=O)N6C[C@H]7CC[C@@H]6[C@@H]7N)cc(F)c5n4CC4CC4)n1c23 (stereo partly drawn) [Example 77, ((1R,4R,7R)-7-amino-2-azabicyclo[2.2.1]heptan-2-yl)(1-(cyclopropylmethyl)-2-(3-ethyl-1-(3-hydroxypropyl)-2,3-dihydro-1H-pyrrolo[1,2,3-de]quinoxalin-5-yl)-7-fluoro-1H-benzo[d]imidazol-5-yl)methanone]
100 to 500 | – | – | CCC1CN(CCO)c2cccc3cc(-c4nc5cc(C(=O)N6C[C@H](N)C[C@@H](F)C6)cc(OC)c5n4C)n1c23 (stereo partly drawn) [Example 79, ((3R,5R)-3-amino-5-fluoropiperidin-1-yl)(2-(3-ethyl-1-(2-hydroxyethyl)-2,3-dihydro-1H-pyrrolo[1,2,3-de]quinoxalin-5-yl)-7-methoxy-1-methyl-1H-benzo[d]imidazol-5-yl)methanone]
100 to 500 | – | – | CCC1CN(CCC(C)(C)O)c2cccc3cc(-c4nc5cc(C(=O)N6C[C@H](N)C[C@@H](F)C6)cc(OC)c5n4C)n1c23 (stereo partly drawn) [Example 83, ((3R,5R)-3-amino-5-fluoropiperidin-1-yl)(2-(3-ethyl-1-(3-hydroxy-3-methylbutyl)-2,3-dihydro-1H-pyrrolo[1,2,3-de]quinoxalin-5-yl)-7-methoxy-1-methyl-1H-benzo[d]imidazol-5-yl)methanon]
> 5000 | – | – | CC[C@@H]1CN(CCCO)c2cccc3cc(-c4nc5cc(C(=O)N6C[C@H]7CC[C@@H]6[C@@H]7N)cc(F)c5n4CC)n1c23 [Example 97, ((1R,4R,7R)-7-amino-2-azabicyclo[2.2.1]heptan-2-yl)(1-ethyl-2-((R)-3-ethyl-1-(3-hydroxypropyl)-2,3-dihydro-1H-pyrrolo[1,2,3-de]quinoxalin-5-yl)-7-fluoro-1H-benzo[d]imidazol-5-yl)methanone]

The remaining lines, values behind:

Compound | IC50 [1] [nM] | IC50 (PAD4 activity comparison, read-out: PAD4 Ammonia assay IC50) [nM] | relative potency of separated isomers in the PAD4 biochemical assay (SFC-separated stereoisomer pairs)
COc1cc(C(=O)N2C[C@H](N)C3(CC3)C2)cc2nc(-c3cc4cccc5c4n3CCN5CCCO)n(CC3CC3)c12 [Example 60, (R)-(7-amino-5-azaspiro[2.4]heptan-5-yl)(1-(cyclopropylmethyl)-2-(1-(3-hydroxypropyl)-2,3-dihydro-1H-pyrrolo[1,2,3-de]quinoxalin-5-yl)-7-methoxy-1H-benzo[d]imidazol-5-yl)methanone] | > 5000 | – | –
CCn1c(-c2cc3cccc4c3n2C(C)CN4CCCO)nc2cc(C(=O)N3C[C@H](N)C[C@@H](F)C3)cc(OC)c21 (stereo partly drawn) [Example 66, ((3R,5R)-3-amino-5-fluoropiperidin-1-yl)(1-ethyl-2-(1-(3-hydroxypropyl)-3-methyl-2,3-dihydro-1H-pyrrolo[1,2,3-de]quinoxalin-5-yl)-7-methoxy-1H-benzo[d]imidazol-5-yl)methanone] | 500 to 5000 | – | –
CCn1c(-c2cc3cccc4c3n2C(C)CN4CCCO)nc2cc(C(=O)N3C[C@H]4CC[C@@H]3[C@@H]4NC(=O)OC(C)(C)C)cc(OC)c21 (stereo partly drawn) [Example 67, tert-butyl ((1R,4R,7R)-2-(1-ethyl-2-(1-(3-hydroxypropyl)-3-methyl-2,3-dihydro-1H-pyrrolo[1,2,3-de]quinoxalin-5-yl)-7-methoxy-1H-benzo[d]imidazole-5-carbonyl)-2-azabicyclo[2.2.1]heptan-7-yl)carbamate] | > 5000 | – | –
CC[C@@H]1CNc2cccc3cc(-c4nc5cc(C(=O)N6C[C@H]7CC[C@@H]6[C@@H]7N)cc(F)c5n4C)n1c23 [Example 73, ((1R,4R,7R)-7-amino-2-azabicyclo[2.2.1]heptan-2-yl)(2-((R)-3-ethyl-2,3-dihydro-1H-pyrrolo[1,2,3-de]quinoxalin-5-yl)-7-fluoro-1-methyl-1H-benzo[d]imidazol-5-yl)methanone] | > 5000 | – | –
CCC1CN(CCCO)c2cccc3cc(-c4nc5cc(C(=O)N6C[C@H]7CC[C@@H]6[C@@H]7N)c(F)c(F)c5n4C)n1c23 (stereo partly drawn) [Example 78, ((1R,4R,7R)-7-amino-2-azabicyclo[2.2.1]heptan-2-yl)(2-(3-ethyl-1-(3-hydroxypropyl)-2,3-dihydro-1H-pyrrolo[1,2,3-de]quinoxalin-5-yl)-6,7-difluoro-1-methyl-1H-benzo[d]imidazol-5-yl)methanone] | 500 to 5000 | – | –
CCC1CN(CCCOC)c2cccc3cc(-c4nc5cc(C(=O)N6C[C@H](N)C[C@@H](F)C6)cc(OC)c5n4C)n1c23 (stereo partly drawn) [Example 84, ((3R,5R)-3-amino-5-fluoropiperidin-1-yl)(2-(3-ethyl-1-(3-methoxypropyl)-2,3-dihydro-1H-pyrrolo[1,2,3-de]quinoxalin-5-yl)-7-methoxy-1-methyl-1H-benzo[d]imidazol-5-yl)methanone] | 100 to 500 | – | –
CCC1CN(CC(C)(C)CO)c2cccc3cc(-c4nc5cc(C(=O)N6C[C@H]7CC[C@@H]6[C@@H]7N)cc(F)c5n4C)n1c23 (stereo partly drawn) [Example 89, ((1R,4R,7R)-7-amino-2-azabicyclo[2.2.1]heptan-2-yl)(2-(3-ethyl-1-(3-hydroxy-2,2-dimethylpropyl)-2,3-dihydro-1H-pyrrolo[1,2,3-de]quinoxalin-5-yl)-7-fluoro-1-methyl-1H-benzo[d]imidazol-5-yl)methanone] | 100 to 500 | – | –
C#CCn1c(-c2cc3cccc4c3n2C(CC)CN4CCCO)nc2cc(C(=O)N3C[C@H]4CC[C@@H]3[C@@H]4N)cc(OC)c21 (stereo partly drawn) [Example 90, ((1R,4R,7R)-7-amino-2-azabicyclo[2.2.1]heptan-2-yl)(2-(3-ethyl-1-(3-hydroxypropyl)-2,3-dihydro-1H-pyrrolo[1,2,3-de]quinoxalin-5-yl)-7-methoxy-1-(prop-2-yn-1-yl)-1H-benzo[d]imidazol-5-yl)methanone] | 100 to 500 | – | –
CCC1CN(CCCO)c2cccc3cc(-c4nc5cc(C(=O)N6C[C@H]7CC[C@@H]6[C@@H]7N)cc(F)c5n4Cc4ccco4)n1c23 (stereo partly drawn) [Example 93, ((1R,4R,7R)-7-amino-2-azabicyclo[2.2.1]heptan-2-yl)(2-(3-ethyl-1-(3-hydroxypropyl)-2,3-dihydro-1H-pyrrolo[1,2,3-de]quinoxalin-5-yl)-7-fluoro-1-(furan-2-ylmethyl)-1H-benzo[d]imidazol-5-yl)methanone] | 100 to 500 | – | –
CC[C@H]1CN(CCCO)c2cccc3cc(-c4nc5cc(C(=O)N6C[C@H]7CC[C@@H]6[C@@H]7N)cc(F)c5n4CC)n1c23 [Example 98, ((1R,4R,7R)-7-amino-2-azabicyclo[2.2.1]heptan-2-yl)(1-ethyl-2-((S)-3-ethyl-1-(3-hydroxypropyl)-2,3-dihydro-1H-pyrrolo[1,2,3-de]quinoxalin-5-yl)-7-fluoro-1H-benzo[d]imidazol-5-yl)methanone] | ≤ 100 | – | more potent than Example 97
